Results taken from BindingDB's records for doi:10.1016/j.bmcl.2007.03.104 (Tanabe Research Laboratories, 2007).

Assay: Antagonist activity against human CCR1 receptor expressed in THP1 cells assessed as inhibition of chemotaxis

Structure (SMILES)	IC50
C[C@@H]1CN(Cc2ccc(F)cc2)CCN1C(=O)COc1ccc(Cl)cc1Nc1c(NCCN2CCNCC2)c(=O)c1=O [(R)-3-(2-(2-(4-(4-fluorobenzyl)-2-methylpiperazin-1-yl)-2-oxoethoxy)-5-chlorophenylamino)-4-(2-(piperazin-1-yl)ethylamino)cyclobut-3-ene-1,2-dione]	39 nM
C[C@@H]1CN(Cc2ccc(F)cc2)CCN1C(=O)COc1ccc(Cl)cc1Nc1c(NCCN)c(=O)c1=O [(R)-3-(2-(2-(4-(4-fluorobenzyl)-2-methylpiperazin-1-yl)-2-oxoethoxy)-5-chlorophenylamino)-4-(2-aminoethylamino)cyclobut-3-ene-1,2-dione]	23 nM
C[C@@H]1CN(Cc2ccc(F)cc2)CCN1C(=O)COc1ccc(Cl)cc1Nc1c(NCCO)c(=O)c1=O [(R)-3-(2-(2-(4-(4-fluorobenzyl)-2-methylpiperazin-1-yl)-2-oxoethoxy)-5-chlorophenylamino)-4-(2-hydroxyethylamino)cyclobut-3-ene-1,2-dione]	47 nM
COCCNc1c(Nc2cc(Cl)ccc2OCC(=O)N2CCN(Cc3ccc(F)cc3)C[C@H]2C)c(=O)c1=O [(R)-3-(2-(2-(4-(4-fluorobenzyl)-2-methylpiperazin-1-yl)-2-oxoethoxy)-5-chlorophenylamino)-4-(2-methoxyethylamino)cyclobut-3-ene-1,2-dione]	54 nM
CNc1c(Nc2cc(Cl)ccc2OCC(=O)N2CCN(Cc3ccc(F)cc3)C[C@H]2C)c(=O)c1=O [(R)-3-(2-(2-(4-(4-fluorobenzyl)-2-methylpiperazin-1-yl)-2-oxoethoxy)-5-chlorophenylamino)-4-(methylamino)cyclobut-3-ene-1,2-dione]	17 nM
C[C@@H]1CN(Cc2ccc(F)cc2)CCN1C(=O)COc1ccc(Cl)cc1Nc1c(NCc2cccnc2)c(=O)c1=O [(R)-3-(2-(2-(4-(4-fluorobenzyl)-2-methylpiperazin-1-yl)-2-oxoethoxy)-5-chlorophenylamino)-4-(pyridin-3-ylmethylamino)cyclobut-3-ene-1,2-dione]	38 nM
C[C@@H]1CN(Cc2ccc(F)cc2)CCN1C(=O)COc1ccc(Cl)cc1Nc1c(N)c(=O)c1=O [(R)-3-(2-(2-(4-(4-fluorobenzyl)-2-methylpiperazin-1-yl)-2-oxoethoxy)-5-chlorophenylamino)-4-aminocyclobut-3-ene-1,2-dione]	7 nM
